The record followed here is patent EP0005299A1, “Substituted 1-phenyl-2,3,4,5-tetrahydro-1H-3-benzazepines, process for the preparation thereof, and pharmaceutical compositions containing them” (priority 1978, dated 1979).

The subject of one series is muricidal behavior. Put plainly: Anti-muricide assay. The format is in vivo, Male Long Evans rats. The settings on record: Rattus norvegicus, ip; rats, intraperitoneal injection, mouse presented at 30 and 60 minutes; dosage at which 50% of the tested rats do not kill mice. As for the experimental part: Anti-muricide assay: Male Long Evans rats weighing 225-250 g are housed I rat per cage, and killers (rats show an instinctive mouse killing behavior (muricide)) are selected initially after being deprived of food for approximately 66 hours. This is the only time the rats are deprived of food. Food, ad libitum, is-avaiable on the cage floor since food bins are not practical because they afford a hiding place for mice. The rats are tested for muricidal behavior the following day and once a week thereafter; non-killers are always eliminated. A non-killer is a rat which fails to kill a mouse placed into his cage within 5 minutes. Drugs are tested in the afternoon of the day following this weekly check for persistance of the killing behavior. Since the rats are not deprived of food or water and rarely attempt to eat the mouse, this behavior is not motivated by hunger. Four weeks after the first test for killing, the rats are injected, i.p., with placebo and then tested 30/60 minutes after the injection. […] Only rats that consistantly kill mice placed in their home cages are used for drug testing. Every treatment-group is comprised of 5 rats. […] Blockade of muricidal behavior is determined by observing the number of surviving mice 5 minutes after being introduced into the rat cages.

For another series, the system named is methamphetamine. Put plainly: Methamphetamine reversal assay. The series is classed as in vivo, mice.
Series [1] in a line: Acute oral toxicity (LD50). The settings on record: mouse, in vivo; oral dose in mice.

Where a name gives a salt, the structure may show the parent alone.

For the compound `CN1CCc2cc(Cl)c(OC(=O)N(C)C)cc2[C@H](c2ccccc2)C1` [(S)-7-chloro-8-dimethylaminocarbonyloxy-3-methyl-1-phenyl-2,3,4,5-tetrahydro-lH-3-benzazepine hydrochloride], the ED50 (in general, the dose at which the effect has come halfway, by size or by number of responders) in the series with muricidal behavior is 5.7 mg/kg; in the series with methamphetamine (Mus musculus, po, 4 h), 1.2 mg/kg. Besides, the LD50 (usually the dose expected to kill half of the subjects tested) in series [1] is more than 300 mg/kg.

Turning to `OCCN1CCN(CCCN2c3ccccc3Sc3ccc(Cl)cc32)CC1` [perphenazine, reference compound], the “protection from methamphetamine lethality” value with methamphetamine (control, perphenazine at 1 mg/kg, aggregated mice, methamphetamine 15 mg/kg i.p.) was “complete protection”.
